Experimental data as given in patent publication EP1984014B1, “USE OF TPO PEPTIDE COMPOUNDS AND PHARMACEUTICAL COMPOSITIONS IN THE TREATMENT OF ANEMIA” (Janssen Pharmaceutica NV, priority 2006, dated 2007).

Tests used:
[1] = test system: mice treated with carboplatin; experiment: Example 3: dosing 1 hour, 1 day or 4 days after carboplatin, anemia in mice; type: in vivo, BALB/c mouse; conditions: carboplatin alone; surviving mice (2 mice) by Day 12 compared to control groups
Method: (§1) The effects of PEGylated TPO Compound No. 1 on mice treated with carboplatin were observed. For all examples herein, a 10 mg/ml stock solution of PEGylated TPO Compound No. 1 was prepared in sterile saline. For mixing, the preparation was placed on a gyratory shaker for 15min. at 200 rpm. This method was used to dissolve PEGylated TPO Compound No. 1 without foaming. The stock was filtered using a GV Millex (0.22um) filter. Dosing solutions were then prepared from this stock using sterile saline. The stock and dosing solutions were prepared fresh on the day of use.
The effect of PEGylated TPO Compound No. 1 on the duration and severity of anemia following dosing regimens in which PEGylated TPO Compound No. 1 is administered at various times following the carboplatin treatment was observed. For this study, an amount of PEGylated TPO Compound No. 1 was administered to mice, one (1) hour, one (1) day or four (4) days following a carboplatin dose.
(§2) The groups of mice were treated with either carboplatin or vehicle (Phosphate Buffered Saline, PBS) by ip administration on Days -1 and 0 as delineated below. The optimal dose of carboplatin used to induce thrombocytopenia in the BALB/c mouse strain was previously determined to be a fractionated total dose of 120mg/kg given as two consecutive daily injections (i.e., 2x60mg/kg). One hour (Day 0), one day (Day 1) or four days (Day 4) following the second dose of carboplatin, groups of mice were treated with PEGylated TPO Compound No. 1 (300ug/kg) or vehicle (sterile saline, SS, preservative-free 0.9% sodium chloride) by IV (bolus) injection as delineated in Table 3. The dose was administered on a per-weight basis (100ul/10g body weight).
(§3) On Days 6, 8, 10 & 12, five mice in each test group were weighed and then euthanised using CO2-asphyxiation and exsanguinations via cardiac puncture. The blood samples were transferred to separate EDTA (lavender-top) microcontainers for hematological evaluation. Groups of control mice (5) were processed on Days 6 & 12. The data are presented graphically as group means + SEM.

carboplatin-treated mice = experiment: Example 4: lower doses (30, 100, 300ug/kg) as survival factor for erythrocyte lineages in carboplatin-treated mice; type: in vivo, BALB/c mouse; conditions: carboplatin alone; by Day 12
Method: as §1
The ability of PEGylated TPO Compound No. 1 to function as a survival factor for megakaryocyte and erythrocyte lineages in carboplatin-treated mice as determined by changes in hematological parameters was observed. […] In this study, the effect of lower doses of PEGylated TPO Compound No. 1 (i.e., 30, 100 and 300ug/kg) on the survival of erythrocyte lineages was examined to characterize the dose-response for this effect.
as §2, with “Approximately one” for “One”, “hour” for “hour (Day 0), one day (Day 1) or four days (Day 4)”, “1” for “1 (300ug/kg)”, “4.” for “3.”
as §3, with “8 and” for “8, 10 &”, “hematologic” for “hematological”, “12.” for “12. The data are presented graphically as group means + SEM.”

[2] = test system: mice treated with two rounds of carboplatin; experiment: Example 5: two rounds of high-dose carboplatin, hematocrit and survival of mice; type: in vivo; conditions: of the mice not utilized for hematological evaluation; carboplatin alone versus combination therapy
Method: as §1
Groups of mice were treated with two rounds of the chemotherapeutic agent (carboplatin) ten days apart, with each round consisting of two consecutive days of carboplatin (i.e., 70 mg/kg/day administered on Days -1 & 0 and Days 10 & 11) as delineated below. The dose of carboplatin utilized for these survival studies exceeded the maximal tolerated dose for mice (i.e., 120 mg/kg; administered as 60 mg/kg/day on 2 consecutive days). One hour following the second dose of carboplatin in each round (i.e., Day 0 and 11) mice were treated with PEGylated TPO Compound No. 1 (100ug/kg) or vehicle (sterile saline, SS, preservative-free 0.9% sodium chloride) by IV (bolus) injection as delineated below. The dose was administered on a per weight basis (100 ul/10g body weight). […]

[3] = test system: mice treated with carboplatin; experiment: Example 2: dosing seven days before and/or 1 hour after carboplatin, hematological parameters in mice; type: in vivo, BALB/c mouse; conditions: carboplatin alone
Method: as §1
The possibility that PEGylated TPO Compound No. 1 may sensitize bone marrow hematopoietic stem cells of mice to the toxic effects of carboplatin treatment was examined. For this study, a dose of PEGylated TPO Compound No. 1 was administered to the mice seven days prior to the carboplatin dose or immediately after carboplatin treatment. An additional group was treated with PEGylated TPO Compound No. 1 both prior to and after carboplatin administration. The effect of these dosing regimens on hematological parameters was also observed.
as §2, with “Days 7” for “Days -1”, “and 8” for “and 0”, “2x60mg/kg). Seven days prior to the first carboplatin dose or one (1)” for “2x60mg/kg). One”, “hour after” for “hour (Day 0), one day (Day 1) or four days (Day 4) following”, “Table 2. An additional group” for “Table 3. The dose”, “was treated with PEGylated TPO Compound No. 1 both before (Day 0) and after (Day 8, t=1h) the carboplatin dose. All dosing was performed” for “was administered”
as §3, with “14, 18, 22 and 26,” for “6, 8, 10 & 12,”, “exsanguination” for “exsanguinations”, “14 and 26.” for “6 & 12.”

[4] = test system: mice treated with carboplatin; experiment: Example 1: dose response of PEGylated TPO Compound No. 1 given one day after carboplatin, anemia in mice; type: in vivo, BALB/c mouse; conditions: carboplatin alone 2x60mg/kg ip; by Day 11
Method: as §1
The effect of PEGylated TPO Compound No. 1 on the duration and severity of anemia following treatment of mice with carboplatin as determined by changes in hemoglobin levels, red blood cell count and hematocrit, was observed. For this study, increasing amounts of PEGylated TPO Compound No. 1 were administered to mice one day following a carboplatin dose to characterize a possible dose-dependent effect on various red blood cell parameters.
The groups of mice were treated with either carboplatin or vehicle (Phosphate Buffered Saline, PBS) by intraperitoneal administration on Days -2 and -1 as delineated below. The optimal dose of carboplatin used to induce thrombocytopenia in the BALB/c mouse strain was previously determined to be a fractionated total dose of 120mg/kg given as two consecutive daily injections (i.e., 2x60mg/kg). One day following the second dose of carboplatin, groups of mice were treated with PEGylated TPO Compound No. 1 or vehicle (sterile saline, SS, preservative-free 0.9% sodium chloride) by IV (bolus) injection as delineated in Table 1. The dose was administered on a per-weight basis (100ul/10g body weight).
as §3, with “5, 7, 9 and 11,” for “6, 8, 10 & 12,”, “hematologic” for “hematological”, “5 and 11.” for “6 & 12.”, “+SEM.” for “+ SEM.”

SMILES: N.N.O=C([O-])C1(C(=O)[O-])CCC1.[Pt+2] [carboplatin]
- decreases in hemoglobin levels, RBC counts and hematocrits [1]: approx. 47%
- decrease in hemoglobin levels (carboplatin-treated mice): greater than 25%
- mice that died between days 4 and 18 [2]: 7
- lost body weight (average) ([3]; between Days 7 and 26): approximately 4%
- decreases in hemoglobin levels, RBC counts and hematocrits ([3]; by Days 18 and 22 compared to control groups): approx. 18%
- decrease in hemoglobin levels [4]: ~20%
